Patent US11465974B2, “Crystalline polymorphs of Pracinostat and Pracinostat salts” (ASSIA CHEMICAL INDUSTRIES LTD., priority 2017, dated 2022)
Counter-ions that a name gives are not always drawn.

Experiments:
Type in all cases: physicochemical
Grinding stability test = settings: ground by mortar and pestle for 1 minute at room temperature, without solvent or with one drop of ethanol, isopropyl alcohol or water
Protocol: Grinding stability test: The tested sample was grinded by moltal&pestle for 1 minute at room temperature either without a solvent or with one drop of solvent from the following solvents: Ethanol, Isopropyl alcohol and water.

[1] = Physical pressure stability test; settings: 3 ton pressure for 1 minute at room temperature
Protocol: Physical pressure stability test: The tested sample was exposed to 3 ton pressure for 1 minute at room temperature.

Thermal stability test = settings: heated to 100° C. for 30 minutes at open dish
Protocol: Thermal stability test: The tested sample was heated to temperature of 100° C. for 30 minutes at open dish.

[2] = Hygroscopicity (absorption of water, determined for example by TGA)
Text: As used herein the term non-hygroscopic in relation to crystalline forms of Pracinostat refers to less than 0.2% (w/w) absorption of water, by the crystalline form of Pracinostat, as determined for example by TGA. Water can be for example atmospheric water.

[3] = Polymorphic stability at relative humidity 0% to 100%; settings: RH of from 0% to 100%, room temperature

stability under grinding (Grinding stability test) | stability under physical pressure [1] | stability under thermal test (Thermal stability test) | absorption of water (hygroscopicity) [2] | period of polymorphic stability [3] | SMILES
stable | stable | stable | less than 0.2 % (w/w) | at least 7 days | CCCCc1nc2cc(/C=C/C(=O)NO)ccc2n1CCN(CC)CC [Form P3, (E)-3-[2-Butyl-1-[2-(diethylamino)ethyl]-1H-benzo[d]imidazol-5-yl]-N-hydroxy-acrylamide]
stable | stable | stable | less than 2 % (w/w) | at least 7 days | CCCCc1nc2cc(/C=C/C(=O)NO)ccc2n1CCN(CC)CC [Pracinostat sulfate Form S1]
stable | stable | stable | less than 0.2 % (w/w) | at least 7 days | CCCCc1nc2cc(/C=C/C(=O)NO)ccc2n1CCN(CC)CC [Form P7, (E)-3-[2-Butyl-1-[2-(diethylamino)ethyl]-1H-benzo[d]imidazol-5-yl]-N-hydroxy-acrylamide]
